These results are taken from patent publication US5519016A, “Aryl group- or aromatic heterocyclic group-substituted aminoquinolone derivatives and anti-HIV agent” (priority 1992, dated 1996).

Test [1] has as its system HIV. The test is described as follows: microbe, parasite or virus in culture. The class given is cell-based. Particulars: Pauwel method. An excerpt:
Exponentially growing MT-4 cells were centrifuged, and the pellets were resuspended in RPMI-1640 medium containing 10% fetal serum (serum medium). Portions of the cell suspension were either inoculated with HIV, or left uninfected. Serum medium was then further added to the suspensions, which were then washed and centrifuged. The resulting pellets were then suspended in serum medium to a concentration of 4×10^5 cells/mi. Preparations of the test compound (in serum medium) were […] in a stepwise manner, and 100 μl of each of the solutions were placed in separated wells of a 96-well plastic microtitre plate. 100 μl of each of the cell suspensions (infected and non-infected) were then added to the wells, so that each dilution of each of the test compounds was tested against both infected and noninfected cells. Blanks (not added either of the cells) were also prepared. The preparations were then cultured by standing the plate at 37° C. for 5 days in the presence of 5 % carbon dioxide gas.
At the end of this time, living cells were assayed for CPE inhibitory activity by the spectrophotometric assay of the blue formazan produced by the reduction of MTT [3-(4,5-dimethylthiazol-2-yl) -2,5-diphenyl-tetrazolium bromide]which was added to the preparations.
CPE inhibitory activity was defined as 100% in non-infected cells to which no test compounds had been added, while CPE inhibitory activity was defined as 0% in infected cells to which test compounds had not been added.

The test system of test [2] is HIV. Particulars: literature / WO-A-90-13542; cited from earlier work.

Consider `CN1CCN(c2cc3c(cc2F)c(=O)c(C(=O)O)cn3-c2ccc(F)cc2)CC1` [Difloxacin, reference compound], for which the “anti-HIV activity (in words)” value with HIV [1] was “little or no anti-HIV activity”. In addition, in the test on HIV [2], the “anti-HIV activity (reported)” value is given as “anti-HIV activity”.
